In general, inhibition refers to the percentage by which the read-out fell short of the control. Lower therefore signals a response near the control. In general, IC50 refers to the point on the concentration scale where inhibition reaches its midpoint. A lower IC50 goes with higher potency.

The text below walks through data of US9067913B2, “Fumigillol type compounds and methods of making and using same” (Zafgen, Inc., priority 2010, dated 2015).

Marks after values point to notes of the source that are not given here.

The target of series [1] is T1, MetAP2 (Homo sapiens, UniProt P50579). The experiment in a line: MetAP2 enzyme assay. It counts as biochemical. As to conditions: for inhibition at 0.05 µM: 50 nM; for inhibition at 0.2 µM: 200 nM. On the procedure: Compound A was tested in a MetAP2 enzyme assay. Table 1 indicates the inhibition results for various concentrations: […]
Series [2] deals with T1, MetAP2. The experiment in a line: cell based assay, inhibition of MetAP2. How it is done: In a cell based assay, the inhibition of MetAP2 was <10 nM.
Series [3] can be described thus: weight loss study in obese mice (high-fat diet induced), Example 2. Type of series: in vivo, C57BL/6NTac mice. As to conditions: 1.0 mg/kg in 10% gelucire in deionised water, once a day for 7 days, 60% fat diet. On the procedure: A weight loss study was conducted in obese mice. The mice in this study were not genetically obese, but prior to and during the study, obesity was induced by a high-fat diet. Twelve week-old C57BL/6NTac mice, maintained on a 60% fat diet prior to and during the study, were separated into seven groups, eight animals per group. Average body weight of the mice was approximately 47 g at the start of the study.
Mice were administered 1.0 mg/kg of compound A in 10% gelucire in deionised water. Mice received administrations once a day for 7 days. The one week weight loss was 11.9%.

Series [4] is described as follows: Study A: 7 day screen, weight loss in mice on 45% kcal fat diet. It counts as in vivo, C57BL/6 mice. On the procedure: Three studies were conducted using 18-20 week old C57BL/6 mice. Study A was a 7 day screen that included 18-20 week old C57BL/6 mice that were provided a 45% kcal fat diet for 14 weeks, and treated with either 10% Gelucire in water or the same vehicle containing an amount of compound A to deliver a dose of 1 mg/kg dosed daily for 7 days.

Series [5] in a line: Study B: 10 day study, weight loss in mice on 60% kcal fat diet. It counts as in vivo, C57BL/6 mice. As to conditions: PO 3 mg/kg, 10% DMSO. On the procedure:
Study B was a 10 day study that included 20 week old C57BL/6 mice on 60% kcal fat diet for 14 weeks treated with either 10% DMSO or the same vehicle containing an amount of drug to deliver a dose of 3 mg/kg of compound A for 10 days. FIG. 2 depicts the 7-day PO efficacy at 3 mg/kg of compound A.

The nature of series [6]: Example 4: body weight loss compared to vehicle, 3 mg/kg for 10 days. Type of series: in vivo, C57BL/6 mice. As to conditions: compared with compound (i) and compound (ii). On the procedure: 20 week old C57BL/6 mice on 60% kcal fat diet for 14 weeks treated with either 10% DMSO or the same vehicle containing an amount of drug to deliver a dose of 3 mg/kg of compound (ii) (as identified above), compound (i) [fumigillol], and compound A for 10 days. FIG. 3 indicates the body weight loss compared to vehicle for each compound.

The test system of series [7] is MetAP2. The experiment in a line: Example 4: testes biomarker, N-terminal peptide of mouse thioredoxin (SEQ ID NO. 1) by LC-MS/MS. Type of series: in vivo. As to conditions: 3 mg/kg for 10 days, testes harvested at end of study. An excerpt: At the end of the study testes from the mice were harvested, homogenized and digested with endoproteinase Glu-C.
Series [8] in a line: Study C: 10 day study, weight loss in mice on 60% kcal fat diet. Type of series: in vivo, C57BL/6 mice. As to conditions: 10% DMSO. On the procedure: Study C was a 10 day study that included 20 week old C57BL/6 mice on 60% kcal fat diet for 14 weeks treated with either 10% DMSO or the same vehicle containing an amount of drug to deliver an oral dose of 1 mg/kg or 3 mg/kg of the compound 6-O-(4-dimethylaminoethoxy)cinnamoyl fumagillol (dimethyl analogue) for 10 days.

T1 sequence (P50579 whole entry, species assumed): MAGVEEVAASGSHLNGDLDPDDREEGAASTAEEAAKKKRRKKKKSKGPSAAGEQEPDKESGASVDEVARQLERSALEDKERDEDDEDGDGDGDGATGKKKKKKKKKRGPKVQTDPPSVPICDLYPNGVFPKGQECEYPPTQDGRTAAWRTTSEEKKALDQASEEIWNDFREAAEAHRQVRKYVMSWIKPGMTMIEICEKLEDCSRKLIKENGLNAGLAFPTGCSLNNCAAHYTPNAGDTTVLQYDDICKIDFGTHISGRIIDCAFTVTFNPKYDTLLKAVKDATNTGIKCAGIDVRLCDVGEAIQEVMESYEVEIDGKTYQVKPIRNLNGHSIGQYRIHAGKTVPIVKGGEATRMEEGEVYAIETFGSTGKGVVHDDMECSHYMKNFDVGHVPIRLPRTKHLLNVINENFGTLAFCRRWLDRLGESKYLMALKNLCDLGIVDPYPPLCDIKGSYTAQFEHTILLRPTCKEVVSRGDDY

With `CCN(CC)CCOc1ccc(/C=C/C(=O)O[C@@H]2CC[C@]3(CO3)[C@@H]([C@@]3(C)O[C@@H]3CC=C(C)C)[C@@H]2OC)cc1` [Compound A], the figures for the inhibition at 0.05 µM in series [1] (1 hr), in series [1] (2 hr) and in series [1] (4 hr) were 42%, 45% and 71%, respectively. Moreover, the inhibition at 0.2 µM in series [1] (1 hr), in series [1] (2 hr) and in series [1] (4 hr) was 100% in each case. Moreover, the IC50 in series [2] is under 10 nM. For the same compound, the “one week weight loss” value in series [3] stood at 11.9%. Moreover, the “weight loss at day 7” value in series [4] (PO 1 mg/kg daily, Study A, 10% Gelucire in water, 45% kcal fat diet) turned out to be 12%^a; in series [5], 13%^b. In addition, the “potency dosed orally as compared to 6-O-(4-dimethylaminoethoxy)cinnamoyl fumagillol” value in series [4] (day 7 weight loss, studies A, B, C compared) is reported as at least 3 times. For the same compound, the “weight loss potency (FIG. 3)” value in series [6] is “comparable weight loss potency”. Further, in series [7], the “availability to the testes tissue (concentration of SEQ ID NO. 1, FIG. 4)” value was “not as available to the testes tissue as compared to the other tested compounds”.

As for `CO[C@@H]1[C@H](OC(=O)C=Cc2ccc(OCCN(C)C)cc2)CC[C@]2(CO2)[C@H]1[C@@]1(C)O[C@@H]1CC=C(C)C` [dimethyl analogue, 6-O-(4-dimethylaminoethoxy)cinnamoyl fumagillol], the “weight loss at day 7” value is given as 1.1%^c in series [8] (PO 1 mg/kg) and 11%^c in series [8] (PO 3 mg/kg).
